# Measurements from patent US20230135152A1 (ACURASTEM INCORPORATED, priority 2020, published 2023).
# Assays:
# [1] = biological target: T1, PIKFYVE (Homo sapiens, UniProt Q9Y2I7); test: PIKFYVE assay (luciferase ADP-Glo kinase assay, Promega); assay type: biochemical
# Method in brief: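 Kinase activity measured with a luciferase-based ADP-Glo read-out, which quantifies ADP formed by the enzyme.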
# [2] = biological target: T1, PIKFYVE; test: Cell-based Pikfyve inhibition activity assay (EEA1 staining, mean vesicle size in BJ fibroblast cells); conditions: Table 4, 4 hours treatment, 3 μM Apilimod = 100% inhibition
# Method in brief: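 BJ fibroblasts treated 4 h at 37° C with eleven 3-fold doses (0.03-3000 nM), then fixed and stained for EEA1. Confocal images (20×, 16 tiles/well) analysed for mean vesicle size. Normalised to 0.5% DMSO (0%) and 3 μM apilimod (100%); dose-response fitted with variable slope.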
# T1 sequence (Q9Y2I7 whole entry): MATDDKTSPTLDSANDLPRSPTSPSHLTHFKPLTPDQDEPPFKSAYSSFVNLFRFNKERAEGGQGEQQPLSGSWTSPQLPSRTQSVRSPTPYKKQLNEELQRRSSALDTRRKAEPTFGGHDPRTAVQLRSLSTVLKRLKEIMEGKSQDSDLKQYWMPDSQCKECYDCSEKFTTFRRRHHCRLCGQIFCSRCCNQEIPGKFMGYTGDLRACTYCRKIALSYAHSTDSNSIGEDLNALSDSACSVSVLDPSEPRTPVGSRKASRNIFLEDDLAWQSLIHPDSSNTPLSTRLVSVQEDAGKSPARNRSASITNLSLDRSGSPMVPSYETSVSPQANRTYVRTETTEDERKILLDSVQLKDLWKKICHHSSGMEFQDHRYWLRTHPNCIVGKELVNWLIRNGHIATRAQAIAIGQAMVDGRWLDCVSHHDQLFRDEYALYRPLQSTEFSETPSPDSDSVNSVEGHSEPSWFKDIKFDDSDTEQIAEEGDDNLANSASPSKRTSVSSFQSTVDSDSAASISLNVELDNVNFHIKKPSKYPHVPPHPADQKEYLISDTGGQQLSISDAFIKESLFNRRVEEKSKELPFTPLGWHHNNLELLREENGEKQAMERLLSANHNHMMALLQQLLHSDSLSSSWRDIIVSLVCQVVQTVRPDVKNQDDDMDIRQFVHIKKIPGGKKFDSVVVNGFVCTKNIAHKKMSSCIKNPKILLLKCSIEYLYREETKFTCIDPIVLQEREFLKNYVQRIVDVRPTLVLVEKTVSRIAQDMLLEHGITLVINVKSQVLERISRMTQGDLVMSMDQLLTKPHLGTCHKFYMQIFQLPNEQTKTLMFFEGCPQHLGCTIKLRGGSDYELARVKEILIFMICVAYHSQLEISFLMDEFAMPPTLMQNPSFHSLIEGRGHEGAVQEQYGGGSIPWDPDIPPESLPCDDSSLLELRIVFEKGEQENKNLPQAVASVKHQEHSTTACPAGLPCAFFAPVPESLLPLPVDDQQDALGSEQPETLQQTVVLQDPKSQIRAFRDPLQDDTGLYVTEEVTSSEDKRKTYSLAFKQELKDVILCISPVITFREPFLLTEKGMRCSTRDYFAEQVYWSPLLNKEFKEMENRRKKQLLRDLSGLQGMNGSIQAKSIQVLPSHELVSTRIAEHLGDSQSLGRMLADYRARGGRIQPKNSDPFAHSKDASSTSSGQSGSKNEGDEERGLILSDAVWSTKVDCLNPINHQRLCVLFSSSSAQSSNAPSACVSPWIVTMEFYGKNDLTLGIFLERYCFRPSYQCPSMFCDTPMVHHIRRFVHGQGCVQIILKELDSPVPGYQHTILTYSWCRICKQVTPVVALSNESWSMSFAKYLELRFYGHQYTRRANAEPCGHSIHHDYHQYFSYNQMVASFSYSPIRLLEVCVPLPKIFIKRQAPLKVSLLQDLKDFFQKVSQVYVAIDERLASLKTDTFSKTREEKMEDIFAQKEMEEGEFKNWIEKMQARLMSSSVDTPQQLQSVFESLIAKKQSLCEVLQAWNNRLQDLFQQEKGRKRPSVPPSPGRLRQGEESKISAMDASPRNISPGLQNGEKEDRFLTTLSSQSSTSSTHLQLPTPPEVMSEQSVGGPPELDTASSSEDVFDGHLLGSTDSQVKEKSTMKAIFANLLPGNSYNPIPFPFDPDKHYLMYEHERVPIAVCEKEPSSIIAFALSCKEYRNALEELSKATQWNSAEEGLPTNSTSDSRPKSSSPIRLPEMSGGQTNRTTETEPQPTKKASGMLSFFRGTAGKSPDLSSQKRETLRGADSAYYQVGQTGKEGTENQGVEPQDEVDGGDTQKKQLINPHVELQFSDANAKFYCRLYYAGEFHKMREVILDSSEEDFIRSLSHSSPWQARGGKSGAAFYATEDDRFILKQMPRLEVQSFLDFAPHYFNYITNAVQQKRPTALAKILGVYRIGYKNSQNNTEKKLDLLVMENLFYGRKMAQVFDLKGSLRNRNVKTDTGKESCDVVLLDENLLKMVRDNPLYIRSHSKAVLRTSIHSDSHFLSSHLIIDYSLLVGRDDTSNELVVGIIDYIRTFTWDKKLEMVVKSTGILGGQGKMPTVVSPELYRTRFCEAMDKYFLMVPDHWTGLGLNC
IC50 ([1]; Table 2) [nM],EC50 [2] [nM],IC50 ([1]; Table 3) [nM],Structure (SMILES)
< 5,20 to 100,–,"Cc1cccc(-c2ccn(-c3cc(N4CCOCC4)nc(OC[C@@H](O)c4ccccc4)n3)n2)c1 (single isomer, unassigned) [Compound 57]"
–,100 to 500,10 to 100,"Cc1ccccc1-c1ccn(-c2cc(N3CCOCC3)nc(OCCc3cnn(C)c3)n2)n1 [Compound 125, 4-(2-(2-(1-methyl-1H-pyrazol-4-yl)ethoxy)-6-(3-(o-tolyl)-1H-pyrazol-1-yl)pyrimidin-4-yl)morpholine]"
–,100 to 500,3 to 10,"Cc1cccc(-c2ccn(-c3cc(N4CCOCC4)nc(OCC#N)n3)n2)c1 [Compound 174, 2-((4-morpholino-6-(3-(m-tolyl)-1H-pyrazol-1-yl)pyrimidin-2-yl)oxy)acetonitrile]"
–,< 20,< 3,"COCc1cccc(-c2ccn(-c3cc(N4CCOCC4)nc(OCCc4cnn(C)c4)n3)n2)c1 [Compound 200, 4-(6-(3-(3-(methoxymethyl)phenyl)-1H-pyrazol-1-yl)-2-(2-(1-methyl-1H-pyrazol-4-yl)ethoxy)pyrimidin-4-yl)morpholine]"
–,100 to 500,< 3,"Cn1cc(CCOc2nc(N3CCOCC3)cc(-n3nc(O)cc3-c3ccccc3)n2)cn1 [Compound 211, 1-(2-(2-(1-methyl-1H-pyrazol-4-yl)ethoxy)-6-morpholinopyrimidin-4-yl)-5-phenyl-1H-pyrazol-3-ol]"
–,100 to 500,3 to 10,"Cc1cccc(-c2ccn(-c3cc(N4CCOCC4)nc(OCCO)n3)n2)c1 [Compound 121, 2-((4-morpholino-6-(3-(m-tolyl)-1H-pyrazol-1-yl)pyrimidin-2-yl)oxy)ethan-1-ol]"
–,> 5000,3 to 10,"Cc1cccc(-c2ccn(-c3cc(N4CCOCC4)nc([C@@H]4CCOC4)n3)n2)c1 (single isomer, unassigned) [Compound 330]"
< 5,20 to 100,–,"Cc1cccc(-c2ccn(-c3cc(N4CCOCC4)nc(OCc4cccnn4)n3)n2)c1 [Compound 54, 4-(2-(pyridazin-3-ylmethoxy)-6-(3-(m-tolyl)-1H-pyrazol-1-yl)pyrimidin-4-yl)morpholine]"
–,< 20,< 3,"CO[C@@H](C)c1cccc(-c2ccn(-c3cc(N4CCOCC4)nc(OCCc4cnn(C)c4)n3)n2)c1 (single isomer, unassigned) [Compound 341]"
–,500 to 5000,3 to 10,"Cc1cccc(-c2ccn(-c3cc(N4CCOCC4)c4[nH]ccc4n3)n2)c1 [Compound 241, 4-(5-(3-(m-tolyl)-1H-pyrazol-1-yl)-1H-pyrrolo[3,2-b]pyridin-7-yl)morpholine]"
–,20 to 100,< 3,"CC#CCCOc1nc(N2CCOCC2)cc(-n2ccc(-c3cccc(C)c3)n2)n1 [Compound 104, 4-(2-(pent-3-yn-1-yloxy)-6-(3-(m-tolyl)-1H-pyrazol-1-yl)pyrimidin-4-yl)morpholine]"
–,< 20,< 3,"CO[C@@H](CO)c1nc(N2CCOCC2)cc(-n2ccc(-c3c[nH]c4ccccc34)n2)n1 (single isomer, unassigned) [Compound 319]"
–,< 20,< 3,"CO[C@@H](CO)c1nc(N2CCOCC2)cc(-n2nc(-c3c[nH]c4ccccc34)cc2C)n1 (single isomer, unassigned) [Compound 261]"
–,20 to 100,< 3,"Cc1cccc(-c2cc(C)n(-c3cc(N4CCOCC4)nc(OCCc4cnn(C)c4)n3)n2)c1 [Compound 219, 4-(2-(2-(1-methyl-1H-pyrazol-4-yl)ethoxy)-6-(5-methyl-3-(m-tolyl)-1H-pyrazol-1-yl)pyrimidin-4-yl)morpholine]"
–,500 to 5000,10 to 100,"Cc1cccc(-c2ccn(-c3cc(N4CCOCC4)nc([C@H](CO)OC(F)F)n3)n2)c1 (single isomer, unassigned) [Compound 310]"
–,< 20,< 3,"C[C@@H](O)c1cccc(-c2ccn(-c3cc(N4CCOCC4)nc(OCCc4cnn(C)c4)n3)n2)c1 (single isomer, unassigned) [Compound 315]"
–,500 to 5000,3 to 10,"Cn1cc(CCOc2nc(N3CCOCC3)cc(-n3ccc(COc4ccccc4)n3)n2)cn1 [Compound 128, 4-(2-(2-(1-methyl-1H-pyrazol-4-yl)ethoxy)-6-(3-(phenoxymethyl)-1H-pyrazol-1-yl)pyrimidin-4-yl)morpholine]"
–,20 to 100,< 3,"Cc1cccc(-c2cc(CN3CCOCC3)n(-c3cc(N4CCOCC4)nc(OCCc4cnn(C)c4)n3)n2)c1 [Compound 235, 4-(2-(2-(1-methyl-1H-pyrazol-4-yl)ethoxy)-6-(5-(morpholinomethyl)-3-(m-tolyl)-1H-pyrazol-1-yl)pyrimidin-4-yl)morpholine]"

IC50 ([1]; Table 2) [nM],EC50 [2] [nM],IC50 ([1]; Table 3) [nM],Structure (SMILES)
–,< 20,< 3,"C/C=C/COc1nc(N2CCOCC2)cc(-n2ccc(-c3cccc(C)c3)n2)n1 [Compound 102, (E)-4-(2-(but-2-en-1-yloxy)-6-(3-(m-tolyl)-1H-pyrazol-1-yl)pyrimidin-4-yl)morpholine]"
–,500 to 5000,3 to 10,"Cn1cc(CCOc2nc(Oc3cc(-c4ccccc4)nn3C)cc(N3CCOCC3)n2)cn1 [Compound 212, 4-(2-(2-(1-methyl-1H-pyrazol-4-yl)ethoxy)-6-((1-methyl-3-phenyl-1H-pyrazol-5-yl)oxy)pyrimidin-4-yl)morpholine]"
–,500 to 5000,10 to 100,"CO[C@@H](CO)c1nc(N2CCOCC2)cc(-n2nc(-c3ccccc3)cc2C)n1 [Compound 204, (R)-2-methoxy-2-(4-(5-methyl-3-phenyl-1H-pyrazol-1-yl)-6-morpholinopyrimidin-2-yl)ethan-1-ol]"
< 5,100 to 500,–,"COC(Cc1ccnn1C)c1nc(N2CCOCC2)cc(-n2ccc(-c3ccccc3)n2)n1 (stereo not drawn) [Compound 68, 4-(2-(1-methoxy-2-(1-methyl-1H-pyrazol-5-yl)ethyl)-6-(3-phenyl-1H-pyrazol-1-yl)pyrimidin-4-yl)morpholine]"
–,500 to 5000,10 to 100,"Cn1cc(CCOc2nc(Oc3cc(-c4ccccc4)[nH]n3)cc(N3CCOCC3)n2)cn1 [Compound 215, 4-(2-(2-(1-methyl-1H-pyrazol-4-yl)ethoxy)-6-((5-phenyl-1H-pyrazol-3-yl)oxy)pyrimidin-4-yl)morpholine]"
–,20 to 100,< 3,"Cn1cc(CCOc2nc(N3CCOCC3)cc(-n3nc(-c4ccccc4)cc3CO)n2)cn1 [Compound 233, (1-(2-(2-(1-methyl-1H-pyrazol-4-yl)ethoxy)-6-morpholinopyrimidin-4-yl)-3-phenyl-1H-pyrazol-5-yl)methanol]"
–,20 to 100,10 to 100,"CO[C@H](CO)c1nc(N2CCOCC2)cc(-n2ccc(-c3c[nH]c4ncccc34)n2)n1 [Compound 292, (S)-2-(4-(3-(1H-pyrrolo[2,3-b]pyridin-3-yl)-1H-pyrazol-1-yl)-6-morpholinopyrimidin-2-yl)-2-methoxyethan-1-ol]"
–,500 to 5000,10 to 100,"Cc1cccc(-c2ccn(-c3cc(N4CCOCC4)nc([C@H]4COCCO4)n3)n2)c1 (single isomer, unassigned) [Compound 325]"
–,20 to 100,3 to 10,"Cc1cccc(-c2ccn(-c3cc(N4CCOCC4)nc(OCc4ncccc4F)n3)n2)c1 [Compound 95, 4-(2-((3-fluoropyridin-2-yl)methoxy)-6-(3-(m-tolyl)-1H-pyrazol-1-yl)pyrimidin-4-yl)morpholine]"
–,500 to 5000,3 to 10,"Cn1cc(COCc2nc(N3CCOCC3)cc(-n3ccc(-c4ccccc4)n3)n2)cn1 [Compound 298, 4-(2-(((1-methyl-1H-pyrazol-4-yl)methoxy)methyl)-6-(3-phenyl-1H-pyrazol-1-yl)pyrimidin-4-yl)morpholine]"
–,> 5000,10 to 100,"CO[C@H](CO)c1nc(N2CCO[C@H](C)C2)cc(-n2ccc(-c3cccc(C)c3)n2)n1 (single isomer, unassigned) [Compound 307]"
–,500 to 5000,10 to 100,"COC(Cc1ccccc1)c1nc(N2CCOCC2)cc(-n2ccc(-c3ccccc3)n2)n1 (stereo not drawn) [Compound 177, 4-(2-(1-methoxy-2-phenylethyl)-6-(3-phenyl-1H-pyrazol-1-yl)pyrimidin-4-yl)morpholine]"
–,20 to 100,3 to 10,"CO[C@H](CO)c1nc(N2CCOCC2)cc(-n2ccc(-c3cn(C)c4ccccc34)n2)n1 (single isomer, unassigned) [Compound 320]"
–,< 20,3 to 10,"Cc1cccc(-c2ccn(-c3cc(N4CCOCC4)nc(OCCc4sc(C)nc4C)n3)n2)c1 [Compound 98, 4-(2-(2-(2,4-dimethylthiazol-5-yl)ethoxy)-6-(3-(m-tolyl)-1H-pyrazol-1-yl)pyrimidin-4-yl)morpholine]"
< 5,20 to 100,–,"Cc1cccc(-c2ccn(-c3cc(N4CCOCC4)nc(C(O)CC#N)n3)n2)c1 (stereo not drawn) [Compound 76, 3-hydroxy-3-(4-morpholino-6-(3-(m-tolyl)-1H-pyrazol-1-yl)pyrimidin-2-yl)propanenitrile]"
–,500 to 5000,10 to 100,"CO[C@@H](CO)c1nc(N2CCOCC2)cc(-n2ccc(-c3cccc4[nH]ccc34)n2)n1 [Compound 269, (R)-2-(4-(3-(1H-indol-4-yl)-1H-pyrazol-1-yl)-6-morpholinopyrimidin-2-yl)-2-methoxyethan-1-ol]"
–,100 to 500,3 to 10,"COC[C@@H](O)c1nc(N2CCOCC2)cc(-n2ccc(-c3cccc(C)c3)n2)n1 (single isomer, unassigned) [Compound 170]"
–,> 5000,10 to 100,"Cn1cc(CCOc2nc(N3CCOCC3)cc(-n3ccc(-c4ccncc4)n3)n2)cn1 [Compound 191, 4-(2-(2-(1-methyl-1H-pyrazol-4-yl)ethoxy)-6-(3-(pyridin-4-yl)-1H-pyrazol-1-yl)pyrimidin-4-yl)morpholine]"
